Ends that are not written are not given here.

The test system of this assay is LN cells and splenocytes upon SAg or peptide restimulation. Kind of assay: Ex vivo tolerization experiment, DR3tg mice. Conditions: IFN-γ; for reduction in response to HIP-115 and HIP-115NE3 peptides: highest concentrations of probing peptide. Type of assay: in vivo. As for the experimental part: FIG. 7: Ex vivo tolerisation protocol. Mice are injected subcutaneously in the flank with 0.1 μg/ml, 1 μg/ml and 10 μg/ml peptide on days −15, −13 and −11, followed by 3 injections of 100 μg/ml on days −8, −6 and −4 (escalating dose regime). On day 0, mice are immunized subcutaneously at the base of the tail with SAg/CFA or peptide/CFA. Mice are sacrificed 10 days after immunization to measure proliferation of LN cells and splenocytes upon SAg or peptide restimulation. LN, lymph nodes.
FIG. 8: Ex vivo tolerance induction by HIP-115NE3-KKK apitope. DR3 mice are injected subcutaneously in the flank with 0.1 μg/ml, 1 μg/ml and 10 μg/ml HIP-115NE3-KKK on days −15, −13 and −11, followed by 3 injections of 100 μg/ml on days −8, −6 and −4 (escalating dose regime). On day 0, mice are immunized subcutaneously at the base of the tail with HIP-115/CFA. Mice are sacrificed 10 days after immunization to measure proliferation of LN cells and splenocytes upon SAg or peptide restimulation. Data represent mean±SEM of the concentration or OD values for the PBS-treated mice (black lines) and peptide-treated mice (color lines). Two-way ANOVA was used to measure overall treatment effects on T cell activation and p-values are written in the graphs. Bonferonni post-hoc testing was used and significant differences are indicated in the graphs (* p<0.05; **** p<0.0001). LN, lymph nodes. (A) Tolerisation against SAg in LN. IFN-γ production expressed as IFN-γ concentration (pg/ml). (B) Tolerisation against SAg in spleen. IFN-γ production expressed as IFN-γ concentration (pg/ml). (C) Tolerisation against HIP-115 and HIP-115NE3 peptides in LN. IFN-γ production expressed as OD values. (D) Tolerisation against HIP-115 and HIP-115NE3 peptides in spleen. IFN-γ production expressed as OD values.
FIG. 9: Ex vivo tolerance induction by HIP-11B apitope. DR3 mice are injected subcutaneously in the flank with 0.1 μg/ml, 1 μg/ml and 10 μg/ml HIP-11B on days −15, −13 and −11, followed by 3 injections of 100 μg/ml on days −8, −6 and −4 (escalating dose regime). On day 0, mice are immunized subcutaneously at the base of the tail with HIP-11B/CFA. Mice are sacrificed 10 days after immunization to measure proliferation of LN cells and splenocytes upon SAg or peptide restimulation. Data represent mean±SEM of the concentration values for the PBS-treated mice (black lines) and peptide-treated mice (color lines). IFN-γ production expressed as IFN-γ concentration (pg/ml). Two-way ANOVA was used to measure overall treatment effects on T cell activation and p-values are written in the graphs. Bonferonni post-hoc testing was used and significant differences are indicated in the graphs (* p<0.05; **** p<0.0001). LN, lymph nodes. (A) Tolerisation against SAg in LN. (B) Tolerisation against SAg in spleen. (C) Tolerisation against HIP-11B peptide in LN. (D) Tolerisation against HIP-11B peptide in spleen.
FIG. 10: Ex vivo tolerance induction by HIP-24DG apitope. DR3 mice are injected subcutaneously in the flank with 0.1 μg/ml, 1 μg/ml and 10 μg/ml HIP-24DG on days −15, −13 and −11, followed by 3 injections of 100 μg/ml on days −8, −6 and −4 (escalating dose regime). On day 0, mice are immunized subcutaneously at the base of the tail with HIP-24DG+HIP-24HM/CFA. Mice are sacrificed 10 days after immunization to measure proliferation of LN cells and splenocytes upon SAg or peptide restimulation. Data represent mean±SEM of the OD values for the PBS-treated mice (black lines) and peptide-treated mice (color lines). IFN-γ production expressed as OD values. LN, lymph nodes. Two-way ANOVA was used to measure overall treatment effects on T cell activation and p-values are written in the graphs. Bonferonni post-hoc testing was used and significant differences are indicated in the graphs (* p<0.05; ** p<0.01; *** p<0.001: **** p<0.0001). LN, lymph nodes. (A) Tolerisation against SAg in LN. (B) Tolerisation against HIP-24DG in LN. (C) Tolerisation against HIP-24HM2 peptide in LN. […]

KKKLTFRRDLYFSRVQVYKKK-NH2 [HIP-17J-KKK]: for the setting “spleen, DR3 mice, escalating dose regime s.c.”, the “tolerization against SAg” value is recorded as “tolerization induced”.
With “KKKVIFKKISRDKSVTIYLGKKK-NH2 [HIP-115NE3-KKK]”, the “reduction in response to SAg” value (LN and spleen, highest dose of SAg used for probing, escalating dose regime s.c.) stood at 70%. The “reduction in response to HIP-115 and HIP-115NE3 peptides” value is listed as 55% (LN) and 65% (spleen).
For the substance “LTKTLTLLPLLANNRERR-NH2 [HIP-24DG, LTKTLTLLPLLANNRERR]”, the “tolerization against the peptide itself / peptides of the same region” value (LN, DR3 mice) is “some tolerization”. In addition, under “LN, DR3 mice, escalating dose regime s.c.”, the “tolerization against SAg” value was “tolerization induced”.

The values are drawn from patent US11542316B2, “S-Arrestin peptides and therapeutic uses thereof” (APITOPE INTERNATIONAL NV, priority 2017, dated 2023).
